Data published in patent publication US11473077B2, “Engineered tyrosine ammonia lyase” (Codexis, Inc., priority 2018, dated 2022).

Legend:
[1] = target: T1, Stanieria cyanosphaera tyrosine ammonia lyase (TAL), wild type, SEQ ID NO: 2 (Stanieria cyanosphaera, UniProt K9XQ92); experiment: SFP characterization assay for kinetic parameters on tyrosine (Michaelis-Menten fit, absorbance at 290 nm); type: biochemical; settings: 0-2.48 mM tyrosine, 200 mM sodium phosphate, pH 7.0, A290
T1 sequence (K9XQ92 1-562): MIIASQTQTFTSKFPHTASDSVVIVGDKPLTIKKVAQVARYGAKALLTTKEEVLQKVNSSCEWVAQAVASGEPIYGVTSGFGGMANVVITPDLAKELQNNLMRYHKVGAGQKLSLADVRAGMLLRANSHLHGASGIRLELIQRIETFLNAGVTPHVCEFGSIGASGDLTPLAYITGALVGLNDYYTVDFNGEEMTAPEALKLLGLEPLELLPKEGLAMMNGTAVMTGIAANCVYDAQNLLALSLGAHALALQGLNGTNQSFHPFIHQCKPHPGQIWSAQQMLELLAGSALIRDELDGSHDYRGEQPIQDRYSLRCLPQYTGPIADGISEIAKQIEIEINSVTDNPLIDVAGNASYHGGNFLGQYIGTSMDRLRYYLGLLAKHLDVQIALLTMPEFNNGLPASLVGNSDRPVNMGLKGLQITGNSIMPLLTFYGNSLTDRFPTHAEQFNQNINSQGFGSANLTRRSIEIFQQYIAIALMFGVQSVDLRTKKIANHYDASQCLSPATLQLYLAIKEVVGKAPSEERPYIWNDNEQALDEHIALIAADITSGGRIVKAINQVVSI
Excerpt: (§1) Polynucleotide sequences encoding phenylalanine and tyrosine ammonia lyases from Stanieria cyanosphaera (SEQ ID NO: 2), Chroogloeocystis siderophila (SEQ ID NO: 4), Flavobacterium johnsoniae (SEQ ID NO: 6), and Rhodotorula glutinis (SEQ ID NO: 8) were synthesized as the genes of SEQ ID NOS: 1, 3, 5, and 7, respectively. These synthetic genes were cloned into a pCK110900 vector system (See e.g., U.S. Pat. No. 7,629,157 and US Pat. Appln. Publn. Nos. 2016/0244787, and 2006/0195947, all of which are incorporated by reference), and subsequently expressed in an E. coli strain derived from W3110. In some embodiments, expression vectors lacking antimicrobial resistance markers find use.
(§2) E. coli cultures transformed with plasmids containing TAL variants were plated onto LBagar plates with 1% glucose and in some instances, 30 μg/mL chloramphenicol, and grown overnight at 37° C. A single colony from each culture was transferred to 5 mL of Luria Broth (LB) with 1% glucose and 30 μg/mL chloramphenicol, where appropriate. The cultures were grown for 18 h at 30° C., 250 rpm, and subcultured approximately 1:50 into 250 ml of TB with 30 μg/mL of chloramphenicol. The cultures were grown for approximately 3-4 h at 30° C., 250 rpm, to an OD600 of 0.6-0.8, and induced with 1 mM of IPTG. The cultures were grown for 20 h at 30° C., 250 rpm. Cells were harvested by centrifugation (7000 rpm×10 min, 4° C.), and the supernatants were discarded. The pellets were resuspended in 30 mL of 20 mM sodium phosphate, pH 8.0, with 150 mM NaCl in some instances, and lysed using a single pass through a microfluidizer (Microfluidics), at 110 psi. The lysates were pelleted (10,000× rpm, 30 min, 4° C.), and the supernatants were heated for 1-2 hours at 60-65° C. in a water bath before being pelleted again (10,000× rpm, 1 h, 4° C.). The resulting supernatants were then frozen and lyophilized to generate powders containing the expressed enzymes.
(§3) SFP Characterization Assay for Activity on Tyrosine and Phenylalanine
(§4) To evaluate if the mutations in the TAL variants had altered kinetics, the Michaelis constant (Km) and maximum velocity (Vmax) were determined for each variant. To assay, 20 μl of diluted TAL variants at 1 g/L and 180 μL of 2-fold serially diluted tyrosine (0-2.48 mM tyrosine in 200 mM sodium phosphate, pH 7.0), were added to the wells of a 96-well UV-STAR® plate (Greiner Bio-One). The reactions were mixed briefly, and the activity was determined by tracking the absorbance at 290 nm over time (every 14-37s over 5 min) using a SPECTRAMAX® Plus 384 or a SPECTRAMAX® 190 (Molecular Devices) absorbance microplate reader. The Vmax and Km for each tested TAL variant was determined by fitting the data to a Michaelis-Menten equation using non-linear regression.

[2] = target: T2, Flavobacterium johnsoniae tyrosine ammonia lyase (TAL), SEQ ID NO: 6 (Flavobacterium johnsoniae, UniProt A5FKY3); experiment: as above; type: biochemical; settings: 0-2.48 mM tyrosine, 200 mM sodium phosphate, pH 7.0, A290
T2 sequence (A5FKY3 1-506): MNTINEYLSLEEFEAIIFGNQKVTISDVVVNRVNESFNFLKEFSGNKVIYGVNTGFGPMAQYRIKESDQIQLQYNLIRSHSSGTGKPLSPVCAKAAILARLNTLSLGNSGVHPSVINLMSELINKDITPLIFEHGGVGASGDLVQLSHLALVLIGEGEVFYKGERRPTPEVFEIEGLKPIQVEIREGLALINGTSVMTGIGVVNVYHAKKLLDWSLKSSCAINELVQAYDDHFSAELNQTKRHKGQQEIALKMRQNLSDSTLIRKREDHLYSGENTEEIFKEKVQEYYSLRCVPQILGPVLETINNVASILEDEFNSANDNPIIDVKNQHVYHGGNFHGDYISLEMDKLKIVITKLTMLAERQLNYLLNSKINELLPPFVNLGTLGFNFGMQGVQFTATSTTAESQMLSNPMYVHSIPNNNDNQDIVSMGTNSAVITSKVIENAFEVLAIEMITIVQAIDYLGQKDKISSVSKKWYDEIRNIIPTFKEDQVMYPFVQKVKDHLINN
Excerpt: as §1, §2, §3, §4

## N[C@@H](Cc1ccc(O)cc1)C(=O)O [Tyr, L-tyrosine]
[1]; read-out: Tyr Km
  Km: 50 to 150 µM
[1]; diluted TAL at 1 g/L
  Tyr Vmax: +++ (“+++” > 5)
[2]; read-out: Tyr Km
  Km: < 50 µM
[2]; diluted TAL at 1 g/L
  Tyr Vmax: + (“+” = 0.5-1)
